Test results: paper PMC8540821, “Estimation of the Difference in Colistin Plasma Levels in Critically Ill Patients with Favorable or Unfavorable Clinical Outcomes” (Pharmaceutics, 2021)
≈ marks a conversion by molar mass, not a printed value. Read-outs that look alike come from different tables or passages of the source. Where a SMILES comes first, the peptide text is derived from it. Bridges are numbered along the chain shown (N, C = ends). [ ]: non-standard residue; d: D form. The star is where a group is joined. X1 = CC[C@H](C)CCCCC(=O)*; Dab = NCC[C@H](N)C(=O)O

Key:
[1] = test system: P. aeruginosa; experiment: Susceptibility of clinical isolates (VITEK 2; MIC by broth dilution on microplate); type: cell-based, Pseudomonas aeruginosa; details: for MIC: Pseudomonas aeruginosa, broth dilution
Source text: (§1) The bacterial isolates were recovered in MacConkey agar (Oxoid-Thermo Scientific®, Hampshire, UK) and sent to the Bacterial Molecular Genetics Laboratory in AMIES transport media (COPAN). […] The MICs of meropenem, amikacin, and colistin were established by the broth dilution method on a microplate. E. coli ATCC® 25922^TM and P. aeruginosa ATCC® 27853^TM strains was used as a susceptibility control (American Type Culture Collection). Finally, the carbapenemase genes blaIMP, blaOXA-48, blaVIM, blaGES, blaKPC, and blaNDM were assessed by multiplex PCR [45].

[2] = test system: K. pneumoniae; experiment: as above; type: cell-based, Klebsiella pneumoniae; details: for MIC: Klebsiella pneumoniae, broth dilution, read-out: highest MIC
Source text: as §1

[3] = test system: P. putida; experiment: as above; type: cell-based, Pseudomonas putida
Source text: as §1

[4] = test system: A. baumannii; experiment: as above; type: cell-based, Acinetobacter baumannii; details: for isolates I (intermediate), n (%) / isolates R (resistant), n (%) / isolates S (susceptible), n (%): n = 1, favorable outcome; for MIC: Acinetobacter baumannii, broth dilution, one isolate
Source text: as §1

[5] = test system: E. cloacae; experiment: as above; type: cell-based, Enterobacter cloacae; details: for isolates I (intermediate), n (%) / isolates R (resistant), n (%) / isolates S (susceptible), n (%): n = 1, favorable outcome
Source text: as §1

[6] = test system: E. coli; experiment: as above; type: cell-based, Escherichia coli; details: n = 1, favorable outcome
Source text: as §1

[7] = test system: C. freundii; experiment: as above; type: cell-based; details: n = 1, unfavorable outcome
Source text: as §1

[8] = clinical; details: human, in vivo, plasma Cmin, fourth day of treatment, HPLC-UV, median (IQR), read-out: Colistin levels, Median, IQR
Protocol: The doses were prescribed by the treating physician based on the institution’s drug-therapeutic guidelines (load of 1 mg/kg and maintenance of 3 mg/kg per day, divided into three doses). Measurement of the colistin concentration in plasma was performed on the fourth day of treatment, when it was assumed that the colistin concentrations would have reached a steady state. Colistin plasma concentrations (Cmin) were measured just before CMS administration. Cmin was chosen because it is more convenient from a practical point of view. Clinical outcomes were classified as (a) favorable (absence of fever (T < 38 °C); leukocytosis <12,000; not requiring vasopressors; in infections in which control cultures could be obtained, these cultures must be sterile within 7 days of treatment and without changes in the initial antimicrobial regimen within of the first 7 days of treatment. In addition, mortality at 30 days was measured as a secondary outcome; or (b) unfavorable (in the case of fever > 38 °C; leukocytosis > 12,000; requirement for a vasopressor or the presence of positive control cultures for the initial microorganism). The clinical outcomes were determined by consensus of at least two physicians on the study team. If all the criteria were met, the patient was assigned as having a favorable outcome; if one criterion was not met, the outcome was considered not favorable. […]

[9] = test system: multiresistant Gram-negative carbapenemase-producing bacteria; experiment: Clinical outcome at day 7 and 30-day mortality in patients treated with CMS; type: in vivo, human
Protocol: This prospective observational study was conducted from September 2017 and June 2020 at a university clinic in the Hospitalization and Critical Care services. The participation of patients in the study was according to the proposed inclusion criteria. Patients over 18 years old, hospitalized for infections caused by multiresistant Gram-negative carbapenemase-producing bacteria, diagnosed in hospital at the clinic of the University of La Sabana, who had been treated with CMS for at least 7 days at the institution, were included. […] Detailed demographic (age, sex, weight), clinical (site of infection, severity of disease, comorbidities (Charlson comorbidity index), CMS loading dose, CMS maintenance dose, duration of treatment, days of stay in the hospital, mortality, carbapenemase class, concomitant antibiotic therapy), laboratory (hemoglobin, red blood cell, neutrophil and platelet counts, serum creatinine and glomerular filtration rate (GFR)), and microbiological (bacterial isolation and characterization) data from each patient were recorded.
The doses were prescribed by the treating physician based on the institution’s drug-therapeutic guidelines (load of 1 mg/kg and maintenance of 3 mg/kg per day, divided into three doses). Measurement of the colistin concentration in plasma was performed on the fourth day of treatment, when it was assumed that the colistin concentrations would have reached a steady state. Colistin plasma concentrations (Cmin) were measured just before CMS administration. Cmin was chosen because it is more convenient from a practical point of view. Clinical outcomes were classified as (a) favorable (absence of fever (T < 38 °C); leukocytosis <12,000; not requiring vasopressors; in infections in which control cultures could be obtained, these cultures must be sterile within 7 days of treatment and without changes in the initial antimicrobial regimen within of the first 7 days of treatment. In addition, mortality at 30 days was measured as a secondary outcome; or (b) unfavorable (in the case of fever > 38 °C; leukocytosis > 12,000; requirement for a vasopressor or the presence of positive control cultures for the initial microorganism). The clinical outcomes were determined by consensus of at least two physicians on the study team. If all the criteria were met, the patient was assigned as having a favorable outcome; if one criterion was not met, the outcome was considered not favorable.

[10] = Acute kidney injury / renal failure (serum creatinine increase above 0.3 mg/dl in 48 h) by colistin level; type: in vivo, human; details: high colistin levels n = 2
Protocol: Regarding the incidence of renal failure, defined as an increase in serum creatinine above 0.3 mg/dl in 48 h, this occurred in 20.7% of patients with low colistin levels, in 50% of patients with normal colistin levels, and in 50% of patients with high colistin levels (Table 5).

[11] = cited from earlier work
Source text: Colistin has been clinically available since the 1950s, but it soon fell into disuse, mainly due to its nephrotoxic potential. Alongside its nephrotoxicity, which ranges between 0 and 58% in different studies, some evidence has found the incidence of peripheral neuropathy may be up to 50% with its use, as the main manifestation of neurotoxicity. The lack of other available options has increased the use of colistin in MDR infections, even with its safety profile. The pharmacokinetics of colistin are complex. Colistin is available as a sulfate and as sodium colis ...

[12] = isolates from patients with favorable outcome n = 10
[13] = isolates from patients with unfavorable outcome n = 14

| Molecule | isolates I (intermediate), n (%) [1, 12] | isolates R (resistant), n (%) [1, 12] | isolates S (susceptible), n (%) [1, 12] | isolates I (intermediate), n (%) [1, 13] | isolates R (resistant), n (%) [1, 13] | isolates S (susceptible), n (%) [1, 13] | isolates I (intermediate), n (%) ([2]; favorable outcome n = 3) | isolates R (resistant), n (%) ([2]; favorable outcome n = 3) | isolates S (susceptible), n (%) ([2]; favorable outcome n = 3) | isolates I (intermediate), n (%) ([2]; unfavorable outcome n = 2) | isolates R (resistant), n (%) ([2]; unfavorable outcome n = 2) | isolates S (susceptible), n (%) ([2]; unfavorable outcome n = 2) | isolates I (intermediate), n (%) ([3]; favorable outcome n = 1) | isolates R (resistant), n (%) ([3]; favorable outcome n = 1) | isolates S (susceptible), n (%) ([3]; favorable outcome n = 1) | isolates I (intermediate), n (%) ([3]; unfavorable outcome n = 1) | isolates R (resistant), n (%) ([3]; unfavorable outcome n = 1) | isolates S (susceptible), n (%) ([3]; unfavorable outcome n = 1) | isolates I (intermediate), n (%) [4] | isolates R (resistant), n (%) [4] | further results |
| --- | --- | --- | --- | --- | --- | --- | --- | --- | --- | --- | --- | --- | --- | --- | --- | --- | --- | --- | --- | --- | --- |
| CN(C)c1cc(NC(=O)CNC(C)(C)C)c(O)c2c1C[C@H]1C[C@H]3[C@H](N(C)C)C(O)=C(C(N)=O)C(=O)[C@@]3(O)C(O)=C1C2=O [Glycylcyclines, tigecycline] | 0 (0) n (%) | 9 (90) n (%) | 0 (0) n (%) | 0 (0) n (%) | 11 (78.6) n (%) | 0 (0) n (%) | 0 (0) n (%) | 0 (0) n (%) | 1 (33.3) n (%) | 0 (0) n (%) | 0 (0) n (%) | 2 (100) n (%) | 1 (100) n (%) | 0 (0) n (%) | 0 (0) n (%) | 0 (0) n (%) | 0 (0) n (%) | 1 (100) n (%) | 0 (0) n (%) | 0 (0) n (%) | isolates S (susceptible), n (%) [4]: 1 (100) n (%); isolates I (intermediate), n (%) [5]: 0 (0) n (%); isolates R (resistant), n (%) [5]: 0 (0) n (%); isolates S (susceptible), n (%) [5]: 1 (100) n (%); isolates I (intermediate), n (%) [6]: 0 (0) n (%); isolates R (resistant), n (%) [6]: 0 (0) n (%); isolates S (susceptible), n (%) [6]: 1 (100) n (%); isolates I (intermediate), n (%) [7]: 1 (100) n (%); isolates R (resistant), n (%) [7]: 0 (0) n (%); isolates S (susceptible), n (%) [7]: 0 (0) n (%) |
| NCC[C@H](O)C(=O)N[C@@H]1C[C@H](N)[C@@H](O[C@H]2O[C@H](CN)[C@@H](O)[C@H](O)[C@H]2O)[C@H](O)[C@H]1O[C@H]1O[C@H](CO)[C@@H](O)[C@H](N)[C@H]1O [amikacin] | – | – | – | – | – | – | – | – | – | – | – | – | – | – | – | – | – | – | – | – | MIC ([1]; established in 23.3% of isolates, read-out: highest MIC): 128 µg/mL (≈ 219 µM); MIC [2]: 64 µg/mL (≈ 109 µM); MIC [4]: 64 µg/mL (≈ 109 µM) |
| CC[C@H](C)CCCCC(=O)N[C@@H](CCN)C(=O)N[C@H](C(=O)N[C@@H](CCN)C(=O)N[C@H]1CCNC(=O)[C@H]([C@@H](C)O)NC(=O)[C@H](CCN)NC(=O)[C@H](CCN)NC(=O)[C@H](CC(C)C)NC(=O)[C@@H](CC(C)C)NC(=O)[C@H](CCN)NC1=O)[C@@H](C)O [colistin] (X1-[Dab]T[Dab][Dab][Dab][dL]L[Dab][Dab]T; lactam 4-C) | 4 (40) n (%) | 4 (40) n (%) | 2 (20) n (%) | 6 (42.8) n (%) | 7 (50) n (%) | 1 (7.14) n (%) | 1 (33.3) n (%) | 2 (66.7) n (%) | 0 (0) n (%) | 0 (0) n (%) | 0 (0) n (%) | 2 (100) n (%) | 1 (100) n (%) | 0 (0) n (%) | 0 (0) n (%) | 0 (0) n (%) | 0 (0) n (%) | 1 (100) n (%) | 1 (100) n (%) | 0 (0) n (%) | level at 96 h ([8]; favorable clinical outcome n = 34, p = 0.167 vs unfavorable): 160 ng/mL; level at 96 h ([8]; unfavorable clinical outcome n = 23): 540 ng/mL; 30 days mortality, n, % ([9]; high colistin levels n = 2 (>4 µg/mL)): 0 (0%) n, %; 30 days mortality, n, % ([9]; normal colistin levels n = 2 (2 to 4 µg/mL)): 0 (0%) n, %; Favorable clinical outcomes ([9]; patients with colistin levels within the normal range): 50%; Favorable clinical outcomes ([9]; patients with levels above the limit of normality): 50%; Favorable clinical outcomes ([9]; patients with low colistin levels): 60%; Acute kidney injury, n, % [10]: 1 (50%) n, %; isolates S (susceptible), n (%) [4]: 0 (0) n (%); isolates I (intermediate), n (%) [5]: 0 (0) n (%); isolates R (resistant), n (%) [5]: 1 (100) n (%); isolates S (susceptible), n (%) [5]: 0 (0) n (%); isolates I (intermediate), n (%) [6]: 1 (100) n (%); isolates R (resistant), n (%) [6]: 0 (0) n (%); isolates S (susceptible), n (%) [6]: 0 (0) n (%); isolates I (intermediate), n (%) [7]: 1 (100) n (%); isolates R (resistant), n (%) [7]: 0 (0) n (%); isolates S (susceptible), n (%) [7]: 0 (0) n (%); calculated volume of distribution [11]: 0.34 L/kg; half-life [11]: 4.18 h |
| C[C@@H](O)[C@H]1C(=O)N2C(C(=O)O)=C(S[C@@H]3CN[C@H](C(=O)N(C)C)C3)[C@H](C)[C@H]12 [meropenem] | – | – | – | – | – | – | – | – | – | – | – | – | – | – | – | – | – | – | – | – | MIC ([1]; found in 56.7% of isolates, 88.2% of which harbored KPC and VIM, read-out: MIC): > 1020 µg/mL; MIC [2]: 32 µg/mL (≈ 83.4 µM); MIC ([3]; Pseudomonas putida, broth dilution, one isolate): > 1020 µg/mL; MIC [4]: 64 µg/mL (≈ 167 µM); MIC ([5]; Enterobacter cloacae, broth dilution, read-out: highest MIC): 32 µg/mL (≈ 83.4 µM) |
| colistimethate sodium [CMS] | – | – | – | – | – | – | – | – | – | – | – | – | – | – | – | – | – | – | – | – | half-life ([11]; in vivo): 2.07 h |
